Laboratory results from patent US6875761B2 (Eisai Co., Ltd., priority 1997, dated 2005).
Where a name gives a salt, the structure may show the parent alone.

Compound	melting point
CCCNC(=O)c1ccc(-c2cc3ccccc3c(N3CCN(CC)CC3)n2)cc1F (as salt: hydrochloride) [Example 384, 1-(4-Ethylpiperazin-1-yl)-3-[4-(N-Propylcarbamoyl)-3-Fluorophenyl]Isoquinoline Dihydrochloride]	124 to 125 °C (dec.)
CCN1CCN(c2nc(-c3ccc(CCO)c(F)c3)cc3ccccc23)CC1 (as salt: hydrochloride) [Example 385, 1-(4-Ethylpiperazin-1-yl)-3-[3-Fluoro-4-(2-Hydroxyethyl)Phenyl]Isoquinoline Dihydrochloride]	213 to 215 °C (dec.)
CCN1CCN(c2nc(-c3ccc(C(O)CO)cc3)cc3ccccc23)CC1 (stereo not shown) (as salt: hydrochloride) [Example 387, 1-(4-Ethylpiperazin-1-yl)-3-[4-(1,2-Dihydroxyethyl)Phenyl]Isoquinoline Dihydrochloride]	132 to 133 °C
CCN1CCN(c2nc(-c3ccc(CCC(C)(C)O)cc3)cc3ccccc23)CC1 (as salt: hydrochloride) [Example 388, 1-(4-Ethylpiperazin-1-yl)-3-[4-(3-Hydroxy-3-Methylbutyl)Phenyl]Isoquinoline Dihydrochloride]	205 to 206 °C
CCN1CCN(c2nc(-c3ccc(C(O)C(C)(C)CO)cc3)cc3ccccc23)CC1 (stereo not shown) (as salt: hydrochloride) [Example 391, 1-(4-Ethylpiperazin-1-yl)-3-[4-(1,3-Dihydroxy-2,2-Dimethylpropyl)Phenyl]Isoquinoline Dihydrochloride]	150.5 to 151.5 °C
CCN1CCN(c2nc(-c3ccc4c(c3)CC(CO)C4)cc3ccccc23)CC1 (stereo not shown) (as salt: hydrochloride) [Example 393, 1-(4-Ethylpiperazin-1-yl)-3-(2-Hydroxymethylindan-5-yl)Isoquinoline Dihydrochloride]	136.5 to 138 °C
CCN1CCN(c2nc(-c3ccc(CO)c(CO)c3)cc3ccccc23)CC1 (as salt: hydrochloride) [Example 394, 1-(4-Ethylpiperazin-1-yl)-3-[(3,4-Dihydroxymethyl)Phenyl]Isoquinoline Dihydrochloride]	130.5 to 132 °C (dec.)
CCN1CCN(c2nc(-c3ccc(C4COCCO4)cc3)cc3ccccc23)CC1 (stereo not shown) (as salt: hydrochloride) [Example 395, 1-(4-Ethylpiperazin-1-yl)-3-[4-(1,4-Dioxan-2-yl)Phenyl]Isoquinoline Dihydrochloride]	163 to 166 °C (dec.)
CCN1CCN(c2nc(-c3ccc(C4CCCO4)cc3)cc3ccccc23)CC1 (stereo not shown) (as salt: hydrochloride) [Example 396, 1-(4-Ethylpiperazin-1-yl)-3-[4-(Tetrahydrofuran-2-yl)Phenyl]Isoquinoline Dihydrochloride]	129 to 130 °C
CCN1CCN(c2nc(-c3ccc([C@H]4CC[C@@H](O)CC4)cc3)cc3ccccc23)CC1 (as salt: hydrochloride) [Example 397, 1-(4-Ethylpiperazin-1-yl)-3-[4-(cis-4-Hydroxycyclohexyl)Phenyl]Isoquinoline Dihydrochloride]	152 to 153 °C
CCN1CCN(c2nc(-c3ccc([C@H]4CC[C@H](O)CC4)cc3)cc3ccccc23)CC1 (as salt: hydrochloride) [Example 398, 1-(4-Ethylpiperazin-1-yl)-3-[4-(trans-4-Hydroxycyclohexyl)Phenyl]Isoquinoline Dihydrochloride]	157 to 158 °C (dec.)
CCN1CCN(c2nc(-c3ccc(CC4CCOCC4)cc3)cc3ccccc23)CC1 (as salt: hydrochloride) [Example 399, 1-(4-Ethylpiperazin-1-yl)-3-[4-(tetrahydropyran-4-yl)Methylphenyl]Isoquinoline Dihydrochloride]	182 to 184 °C (dec.)
CCN1CCN(c2nc(-c3ccc(OC[C@@H](C)O)cc3)cc3ccccc23)CC1 (as salt: hydrochloride) [Example 403, 1-(4-ethylpiperazin-1-yl)-3-[4-(2-hydroxypropoxy)phenyl]isoquinoline Dihydrochloride]	112 to 114 °C
CCN1CCN(c2nc(-c3ccc(O[C@@H](C)CO)cc3)cc3ccccc23)CC1 (as salt: hydrochloride) [Example 404, 1-(4-ethylpiperazin-1-yl)-3-[4-(2-hydroxy-1-methylethoxy)phenyl]isoquinoline Dihydrochloride]	128 to 129 °C
CCN1CCN(c2nc(-c3ccnc(OC)c3)cc3ccccc23)CC1 (as salt: hydrochloride) [Example 405, 1-(4-ethylpiperazin-1-yl)-3-(2-methoxypyridin-4-yl)isoquinoline]	174 to 176 °C
CCN1CCN(c2nc(-c3ccnc(OCCOC)c3)cc3ccccc23)CC1 (as salt: hydrochloride) [Example 407, 1-(4-ethylpiperazin-1-yl)-3-[2-(2-methoxyethoxy)pyridin-4-yl]isoquinoline]	139 to 140 °C
CCN1CCN(c2nc(-c3ccc(C(N)=O)cc3)cc3ccccc23)CC1 (as salt: hydrochloride) [Example 408, 1-(4-ethylpiperazin-1-yl)-3-(4-carbamoylphenyl)isoquinoline]	197 to 199 °C
CCN1CCN(c2nc(-c3ccc(C(O)C4CCCCC4)cc3)cc3ccccc23)CC1 (stereo not shown) (as salt: hydrochloride) [Example 409, 1-(4-ethylpiperazin-1-yl)-3-[4-(cyclohexylhydroxymethyl)phenyl]isoquinoline]	153 to 155 °C
CCN1CCN(c2nc(-c3ccc(C(O)(c4nccs4)c4nccs4)cc3)cc3ccccc23)CC1 (as salt: hydrochloride) [Example 411, 1-(4-ethylpiperazin-1-yl)-3-{4-[bis(1,3-thiazol-2-yl)hydroxymethyl]phenyl}isoquinoline]	157 to 158 °C
CCN1CCN(c2nc(-c3ccc4c(c3)CCC4=O)cc3ccccc23)CC1 (as salt: hydrochloride) [Example 414, 1-(4-ethylpiperazin-1-yl)-3-(1-indanon-5-yl)isoquinoline]	233 °C (dec.)
CCN1CCN(c2nc(-c3ccc(CCC(C)(C)O)c(F)c3)cc3ccccc23)CC1 (as salt: hydrochloride) [Example 416, 1-(4-ethylpiperazin-1-yl)-3-[4-(3-hydroxy-3-methylbutyl)-3-fluorophenyl]isoquinoline]	206 to 207 °C
CCN1CCN(c2nc(-c3ccc(OCCO)c(C#N)c3)cc3ccccc23)CC1 (as salt: hydrochloride) [Example 417, 1-(4-ethylpiperazin-1-yl)-3-[3-cyano-4-(2-hydroxyethoxy)phenyl]isoquinoline]	162 to 164 °C
CCN1CCN(c2nc(-c3cccc(CCCO)c3)cc3ccccc23)CC1 (as salt: hydrochloride) [Example 418, 1-(4-ethylpiperazin-1-yl)-3-[3-(3-hydroxypropyl)phenyl]isoquinoline]	101 to 103 °C
CCN1CCN(c2nc(Cc3ccccc3)cc3ccccc23)CC1 (as salt: hydrochloride) [Example 419, 1-(4-ethylpiperazin-1-yl)-3-benzylisoquinoline]	118 to 119 °C
CCN1CCN(c2nc(NC(=O)c3ccccc3)cc3ccccc23)CC1 (as salt: hydrochloride) [Example 421, 3-benzamide-1-(4-ethylpiperazin-1-yl)isoquinoline]	160 to 162 °C
